According to article PMC3997483, “Aminostyrylbenzofuran Directly Reduces Oligomeric Amyloid-β and Reverses Cognitive Deficits in Alzheimer Transgenic Mice” (PLoS ONE, 2014):

How the values were obtained:
[1] = Plasma stability; type: in vitro ADME; settings: 37 °C
Procedure: Plasma stability studies Plasma stability of the KMS88009 was studied in human, dog, rat and mouse plasma. Each plasma from different species was diluted to 5-fold with 0.05 M phosphate buffered saline (PBS, pH 7.4 at 37 °C). We added KMS88009 to 1 mL of preheated plasma solution to yield a final concentration of 1 μM. The assay was performed in a shaking water bath at 37 °C and conducted in triplicate. Samples (50 μL) were taken at 0, 0.5, 1, 2 and 6 hr and added to 10 μL of 0.05% formic acid. The samples were subjected to vortex mixing for 1 min and centrifuged at 4 °C for 20 min at 14,000 rpm. The clear supernatants were analyzed by liquid chromatography/mass/mass spectrometry (LC-MS/MS). Values are expressed as the mean ± SD of 2 independent experiments. Stability is expressed as the percentage of remaining compound in % relative to the start concentration set to 100%.

[2] = system: Aβ40 and Aβ42; assay: Aβ40/Aβ42 sandwich ELISA of hippocampus, therapeutic trial; type: in vivo, mouse; settings: 30 mg/kg/day, 3 months
Procedure: Mice subjected to behavior tests were sacrificed and levels of Aβ in their brains were analyzed. After removing olfactory lobe and cerebellum of brain, hippocampus and cerebral cortex were separated. The separated regions were Dounce-homogenized first in 10-fold mass of a lysis buffer (RIPA, 150 mM NaCl, 1% NP-40, 0.5% deoxycholic acid, 0.1% SDS and 50 mM tris, pH 8.0) or tris buffer (50 mM tris and pH 8.0) containing protease inhibitor cocktail (Pierce, USA) for prophylactic or therapeutic treatment groups, respectively. The homogenates were then centrifuged at 16,000 g for 20 min at 4°C. The supernatant (soluble Aβ fraction) was collected and stored at −70°C until analyzed. The resulting pellet was solubilized in 20-fold mass of cold guanidine solution (5 M guanidine HCl, 50 mM tris HCl and pH 8.0) at room temperature for 4 hr followed by dilution with cold Dulbecco's phosphate buffered saline (PBS) with 5% BSA and 0.03% tween-20. The diluent was centrifuged at 16,000 g for 20 min at 4°C to obtain the insoluble Aβ fraction. The tissue concentrations of Aβ40 and Aβ42 in the soluble and insoluble fraction were measured using Aβ-detecting sandwich enzyme-linked immunosorbent assay (ELISA) kit (BioSource, USA). The levels of soluble Aβ oligomers were measured by a dot-blot immunoassay with an anti-oligomer antibody and an anti-Aβ antibody on soluble fraction of hippocampus homogenates. The homogenate sample (3 µL) was spotted onto nitrocellulose membrane (Whatman, UK). After blocking with 5% BSA in tris-buffered saline (TBS) for 1 hr at room temperature, the membrane was incubated with rabbit anti-oligomer polyclonal antibody (A11; 1∶1,000; Millipore, USA) overnight at 4°C, followed by incubation with HRP-secondary anti-rabbit antibody (1∶5,000; Millipore, USA) for 1 hr at room temperature. Blots were developed using ECL reagents (PerkinElmer, USA). […] The density of dots was analyzed with Multi Gauge program (Fuji Film, Japan) and the data was normalized to the average density of the TG control group. […]

SMILES: COc1ccc2cc(C=Cc3ccc(N(C)C)cc3)oc2c1 [KMS88009, 6-methoxy-2-(4-dimethylaminostyryl) benzofuran]
- Parent compound remaining ([1]; dog plasma, 0.5 hr): 100.0%
- Parent compound remaining ([1]; dog plasma, 1 hr): 100.0%
- Parent compound remaining ([1]; dog plasma, 2 hr): 100.0%
- Parent compound remaining ([1]; dog plasma, 6 hr): 100.0%
- Parent compound remaining ([1]; human plasma, 0.5 hr): 100.0%
- Parent compound remaining ([1]; human plasma, 1 hr): 100.0%
- Parent compound remaining ([1]; human plasma, 2 hr): 82.0%
- Parent compound remaining ([1]; human plasma, 6 hr): 100.0%
- Parent compound remaining ([1]; mouse plasma, 0.5 hr): 100.0%
- Parent compound remaining ([1]; mouse plasma, 1 hr): 100.0%
- Parent compound remaining ([1]; mouse plasma, 2 hr): 100.0%
- Parent compound remaining ([1]; mouse plasma, 6 hr): 100.0%
- Parent compound remaining ([1]; rat plasma, 0.5 hr): 86.9%
- Parent compound remaining ([1]; rat plasma, 1 hr): 93.7%
- Parent compound remaining ([1]; rat plasma, 2 hr): 100.0%
- Parent compound remaining ([1]; rat plasma, 6 hr): 100.0%
- decrease of insoluble Aβ42 level vs TG littermates [2]: 50.9%
- decrease of insoluble Aβ40 level vs TG mice ([2]; not statistically significant): 44.9%
- decrease of soluble Aβ40 level vs TG mice ([2]; not statistically significant): 19.4%
